Measurements: patent US20070281857A1, “FORMIC ACID AS AN HERBICIDE” (MARRONE ORGANIC INNOVATIONS, priority 2006, published 2007)
Like-named read-outs stand apart in the source and are kept apart here.

Experiments:
[1] = tested on: wheat (Triticum aestivum); conditions: spray
Protocol: (§1) The herbicidal effect of formic acid was compared with that of acetic acid in a greenhouse study using radish (Raphanus sativus) and wheat (Triticum aestivum) as test plants. Both formic acid and acetic acid were diluted in water at 1, 3, and 5%, and deionized water was used as a control. Tween 20 was added to each of the solutions at a rate 0.04% for use as a surfactant. Solutions were applied to plants using a small handheld sprayer. Plants were evaluated at 24- and 72-hours after treatment for the % control.

[2] = tested on: radish (Raphanus sativus); conditions: spray
Protocol: as §1

[3] = tested on: monocotyledonous wheat plants (Triticum aestivum); conditions: foliar spray 5%; one day post-treatment
Description: (§2) In order to determine whether formic acid could be used as a foliar herbicide it was applied as a foliar spray to the leaves of dicotyledonous radish plants (Raphanus sativas) and monocotyledonous wheat plants (Triticum aestivum). Solutions were applied to plants using a small handheld sprayer.
(§3) Formic acid and acetic acid solutions at three concentrations (1%, 3%, 5%) were applied and water was used as a check. A barrier was inserted between the rows of plants on either side of the row being treated to avoid drift of sprays into neighboring rows. Plants were evaluated at 24-hour and 72-hour intervals for the number of surviving plants and a percentage was derived from this number in comparison with the number of plants originally present in the row.

[4] = tested on: dicotyledonous radish plants (Raphanus sativas); conditions: one day post-treatment
Description: as §2, §3

[5] = tested on: Canada thistle and other perennials; conditions: cited from earlier work
[6] = tested on: annual weeds tested including foxtail, lambsquarters, and pigweed; conditions: found by the USDA; cited from earlier work

CC(=O)O [Acetic acid]
% control of wheat seedlings ([1]; 5%, 72-h): 28% | % control of wheat seedlings ([1]; lower concentrations (1 and 3%), after 72-h): 5-14% | % control of the dicot weeds (radish) ([2]; 1%): 51% | % control of the dicot weeds (radish) ([2]; 3%): 71% | control of radish plants compared with formic acid (100%) ([2]; 5% dilution): comparable | wheat plants killed [3]: 30% | foliage surviving, radish ([4]; foliar spray 1%): 50% | foliage surviving, radish ([4]; foliar spray 3%): 30% | killing of foliage of radish plants ([4]; foliar spray 5%): killed all foliage | control of perennials [5]: does not control the root system | share of annual weeds tested against which effective [6]: 80%
